A word on the IC50: it is the concentration that inhibits the measured activity by half.

Consider 12 compounds from patent publication US8575145B2, “Triazolopyridine compounds as PIM kinase inhibitors” (Array BioPharma Inc., priority 2008, dated 2013).

In one assay the target is PIM-1 (Homo sapiens (Human), UniProt P11309). Description: PIM-1 Enzyme Assay. Format: biochemical. As to conditions: 35 μM ATP, 0.25 nM PIM-1. As to the method: The amount of radiolabeled product is then measured by liquid scintillation counting. The final buffer conditions were as follows: 20 mM K^+MOPS, pH 7.4, 10 mM MgCl2, 0.005% Tween-20, 1 mM DTT. […] Incubations were carried out for 60 min at 22° C. and quenched with 75 μL of 200 mM H3PO4, filtered through a Whatman P81 plate and washed (1×200 μL and 5×100 μL ) with 200 mM H3PO4. Liquid scintillation cocktail (50 μL ) was then added per well, and the plate was counted for 30 s/well using a TopCount NXT.
Sequence of PIM-1 (P11309 whole entry, species assumed): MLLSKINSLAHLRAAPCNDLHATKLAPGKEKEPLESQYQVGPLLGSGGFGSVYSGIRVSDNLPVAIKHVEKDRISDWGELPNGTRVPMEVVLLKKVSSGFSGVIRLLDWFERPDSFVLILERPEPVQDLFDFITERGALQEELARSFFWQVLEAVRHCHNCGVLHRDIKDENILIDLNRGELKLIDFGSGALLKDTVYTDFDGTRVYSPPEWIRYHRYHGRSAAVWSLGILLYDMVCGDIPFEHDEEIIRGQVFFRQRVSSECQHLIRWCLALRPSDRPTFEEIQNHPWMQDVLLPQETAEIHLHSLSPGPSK
One-μL aliquots of these were then transferred to the assay mixtures above to give a final concentration of DMSO of 2%. […] For each plate, percent of control (POC) values were calculated for each well. IC50's were estimated from the POC's using a standard 4-parameter logistic model. The IC50 is defined as the concentration of inhibitor at which the POC equals 50 for the fitted curve.

For assay [1], the target named is GST-tagged recombinant full-length human PIM-2 (Homo sapiens (Human), UniProt Q9P1W9). As to the kind of experiment: PIM-2 Enzyme Assay. As to conditions: read-out: PIM-2 IC50; 4 μM ATP, […] PIM-2.
Sequence of GST-tagged recombinant full-length human PIM-2 (Q9P1W9 whole entry): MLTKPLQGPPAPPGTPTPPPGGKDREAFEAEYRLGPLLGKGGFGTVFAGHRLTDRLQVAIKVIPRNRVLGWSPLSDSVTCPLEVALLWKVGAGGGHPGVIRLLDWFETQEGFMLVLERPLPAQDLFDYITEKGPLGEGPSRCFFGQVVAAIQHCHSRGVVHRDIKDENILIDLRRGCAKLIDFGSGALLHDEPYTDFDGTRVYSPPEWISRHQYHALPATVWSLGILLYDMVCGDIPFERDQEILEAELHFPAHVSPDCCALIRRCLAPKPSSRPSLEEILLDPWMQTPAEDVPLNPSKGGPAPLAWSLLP
The target of a further assay is recombinant rat PIM-3 (Rattus norvegicus (Rat), UniProt O70444). As to the kind of experiment: PIM-3 Enzyme Assay. As to conditions: read-out: PIM-3 IC50; 30 μM ATP, 0.5 nM PIM-3.

Counter-ions that a name gives are not always drawn.

For `F[C@H]1CNCC[C@@H]1Oc1cccc2ccc(-c3nnc4ccccn34)nc12` (relative stereo) [Example 25, 2-([1,2,4]triazolo[4,3-a]pyridin-3-yl)-8-((trans)-3-fluoropiperidin-4-yloxy)quinoline], the results for the IC50 (against PIM-1; in assay [1]; on recombinant rat PIM-3) were 4 nM, 686 nM and 20 nM, respectively.
As to `Fc1ccc2nnc(-c3ccc4cccc(O[C@H]5CCNC[C@H]5F)c4n3)n2c1` (relative stereo) [Example 59, 2-(6-fluoro-[1,2,4]triazolo[4,3-a]pyridin-3-yl)-8-((cis)-3-fluoropiperidin-4-yloxy)quinoline], the IC50 against PIM-1 turned out to be 55 nM; in assay [1], 2870 nM; at recombinant rat PIM-3 it was 98 nM.
For `Fc1cc(O[C@H]2CCNC[C@H]2F)c2nc(-c3nnc4ccccn34)ccc2c1` (relative stereo) [Example 88, 2-([1,2,4]triazolo[4,3-a]pyridin-3-yl)-6-fluoro-8-((cis)-3-fluoropiperidin-4-yloxy)quinoline] the same measures were 8 nM, 502 nM and 24 nM.
For the compound `NCCCOc1cccc2ccc(-c3nnc4ccccn34)nc12` [Example 10, 3-(2-([1,2,4]Triazolo[4,3-a]pyridin-3-yl)quinolin-8-yloxy)propan-1-amine], the figures for the 50% inhibitory concentration (IC50) (in assay [1]; at recombinant rat PIM-3) were 514 nM and 13 nM, respectively.
For the compound `COC(=O)[C@@H]1C[C@@H](Oc2cccc3ccc(-c4nnc5ccccn45)nc23)CCN1` [Example 13, (2S,4S)-Methyl 4-(2-([1,2,4]triazolo[4,3-a]pyridin-3-yl)quinolin-8-yloxy)piperidine-2-carboxylate], the half-inhibitory concentration (IC50) in assay [1] was found to be 189 nM; on recombinant rat PIM-3 it was 9 nM.
For `CC(C)(CO)COc1cccc2ccc(-c3nnc4ccccn34)nc12` [Example 24, 3-(2-([1,2,4]triazolo[4,3-a]pyridin-3-yl)quinolin-8-yloxy)-2,2-dimethylpropan-1-ol], the IC50 in assay [1] came to 77 nM; at recombinant rat PIM-3, 4 nM.
For `CCNCC(C)(C)COc1cccc2ccc(-c3nnc4ccccn34)nc12` [Example 27, 3-(2-([1,2,4]triazolo[4,3-a]pyridin-3-yl)quinolin-8-yloxy)-N-ethyl-2,2-dimethylpropan-1-amine di-trifluoroacetate], the IC50 in assay [1] worked out at 323 nM; on recombinant rat PIM-3, 13 nM.
For the compound `CNCC(C)(C)COc1cccc2ccc(-c3nnc4ccccn34)nc12` [Example 28, 3-(2-([1,2,4]triazolo[4,3-a]pyridin-3-yl)quinolin-8-yloxy)-N,2,2-trimethylpropan-1-amine], the IC50 in assay [1] was 143 nM; on recombinant rat PIM-3 it was 4 nM.
In the case of `COC(=O)[C@@H]1C[C@H](Oc2cccc3ccc(-c4nnc5ccccn45)nc23)CN1` [Example 87, (2S,4S)-methyl 4-(2-([1,2,4]triazolo[4,3-a]pyridin-3-yl)quinolin-8-yloxy)pyrrolidine-2-carboxylate], the half-maximal inhibitory concentration (IC50) came out at 167 nM against PIM-1 and 248 nM at recombinant rat PIM-3.
In the case of `CC(C)(COc1cccc2ccc(-c3nnc4ccccn34)nc12)[C@@H](O)CO` [Example 113, (R)-4-(2-([1,2,4]triazolo[4,3-a]pyridin-3-yl)quinolin-8-yloxy)-3,3-dimethylbutane-1,2-diol], the IC50 in assay [1] is 167 nM; at recombinant rat PIM-3 it was 8.8 nM.
Turning to `CC(C)(CNC(=O)CF)COc1cccc2ccc(-c3nnc4ccccn34)nc12` [Example 134, N-(3-(2-([1,2,4]triazolo[4,3-a]pyridin-3-yl)quinolin-8-yloxy)-2,2-dimethylpropyl)-2-fluoroacetamide], the results for the IC50 (against PIM-1; in assay [1]) were 10.1 nM and 952 nM, respectively.
Regarding `CC(C)(CNCC(F)F)COc1cccc2ccc(-c3nnc4ccccn34)nc12` [Example 135, 3-(2-([1,2,4]triazolo[4,3-a]pyridin-3-yl)quinolin-8-yloxy)-N-(2,2-difluoroethyl)-2,2-dimethylpropan-1-amine hydrochloride], the 50% inhibitory concentration (IC50) at PIM-1 was 12.6 nM; in assay [1] it was 506 nM.
